Series [1] concerns Pyricularia oryzae. Format: in vivo. The conditions noted are these: in vivo.
For series [2], the system named is Pyrenophora teres. Put plainly: Example D: Pyrenophora test (barley) / preventive. Format: in vivo.
For series [3], the system named is Sphaerotheca fuliginea. Put plainly: Example A: Sphaerotheca test (cucumber) / preventive. Format: in vivo.
In series [4] the test system is DON/Acetyl-DON production by Fusarium graminearum. As to the kind of experiment: microbe, parasite or virus in culture. Format: cell-based. The conditions noted are these: at 50 μM.
Series [5] deals with Uromyces appendiculatus. As to the kind of experiment: Example B: Uromyces test (beans) / preventive. Format: in vivo. The note with it: in vivo.
Series [6] is described as follows: Determination of log P values by HPLC on a reverse phase column (C18), EEC-Directive 79/831 Annex V.A8 (Methods A, B, C). Format: physicochemical. The note with it: for chromatographic logP: reverse phase C18 HPLC column. The procedure, abridged:
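Three C18 chromatographic methods following EEC-Directive 79/831 Annex V.A8 gave the logP values. Method C (UPLC, 2.1 mm column) ran at 40 °C and 0.8 mL/min with a 3.25 min 10–95% acetonitrile gradient. Methods A and B both ran at 55 °C and 2.0 mL/min, with gradients of 10–95% in 4.25 min and 5–95% in 1.70 min.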

Series [7] has as its system Puccinia recondita. Put plainly: Example E: Puccinia test (wheat) / preventive. Format: in vivo. The note with it: in vivo.
For series [8], the system named is Leptosphaeria nodorum. Put plainly: Example C: Leptosphaeria test (wheat) / preventive. The conditions noted are these: in vivo. Format: in vivo.
The test system of series [9] is Fusarium graminearum. As to the kind of experiment: microbe, parasite or virus in culture. Format: cell-based. The note with it: for Growth inhibition of Fusarium graminearum in %: at 50 μM.
In series [10] the test system is Fusarium graminearum. Format: in vivo. The conditions noted are these: in vivo.
Series [11] relates to Septoria tritici. As to the kind of experiment: Example J: Septoria tritici test (wheat) / preventive. The conditions noted are these: in vivo. Format: in vivo.
Where [12] appears, read: Method C (HPLC, reverse phase C18).
The mark [13] stands for this setting: Method C (HPLC, reverse phase C18), read-out: LogP.
Where [14] appears, read: pH 2.7, values in the synthesis examples, HPLC, reverse phase C18, read-out: log P (pH 2.7).
Where [15] appears, read: Method B (HPLC, reverse phase C18).

Read-outs that look alike come from different tables or passages of the source.

The results in this text go back to patent US9023844B2, “Heterocyclylpyri (mi) dinylpyrazole as fungicidals” (Bayer Intellectual Property GmbH, priority 2011, dated 2015).

Turning to `CCC(=O)Nc1cc(-c2c(-c3ccc(F)cc3)nn3c2NCCC3)ccn1` [Example 80], the efficacy in series [1] stood at 90%; in series [2] (in vivo) it was 100%; in series [3] (in vivo), 93%; in series [5], 78%. In addition, the “Inhibition of DON/AcDON in %” value in [4] turned out to be 100%. Besides, the lipophilicity (LogP) – broadly, a log measure of how a compound divides between an organic and an aqueous phase – in series [6] (setting [12]) is on record as 1.35.

In the case of `CC(=O)N(C(C)=O)c1cc(-c2c(-c3ccccc3)nn3cccnc23)ccn1` [Example 56, N-Acetyl-N-[4-(2-phenylpyrazolo[1,5-a]pyrimidin-3-yl)pyridin-2-yl]acetamide], the efficacy was 95% in series [2] (500 ppm of active ingredient, barley, preventive spray, evaluated 7-9 days after inoculation) and 80% in series [3] (500 ppm of active ingredient, cucumber, preventive spray, evaluated 7 days after inoculation). The chromatographic logP in series [6] (setting [13]) and in series [6] (setting [14]) was 2.13 in each case.

In the case of `CC(=O)N(C(C)=O)c1cc(-c2c(-c3ccc(F)cc3)nn3cccnc23)ccn1` [Example 83], the results for the efficacy in series [2] (in vivo) and in series [3] (in vivo) were 80% and 90%, respectively. In series [6] (setting [12]), this compound returned a LogP of 2.22.

`CC(C)=CCC(=O)Nc1cc(-c2c(-c3ccccc3)nn3c2OCCC3)ccn1` [Example 19]: the efficacy in [1] amounted to 94%; in [2] (in vivo) it was 95%; in series [7], 95%; in series [3] (in vivo) it was 90%; in series [5], 92%. This compound also came in with a LogP in series [6] (setting [15]) of 1.91.

As to `CC(C)C(=O)Nc1cc(-c2c(-c3ccsc3)nn3c2OC[Si](C)(C)C3)ccn1` [Example 101], the efficacy in [1] is given as 80%; in [2] (in vivo), 100%; in series [8] it was 80%; in series [5], 75%. The “Growth inhibition of Fusarium graminearum in %” value (“Growth inhibition … in %” for short) in series [9] worked out at 93%. Further, the “Inhibition of DON/AcDON in %” value in series [4] came out at 100%. In addition, the LogP in series [6] (setting [12]) came to 2.11.

Consider `CSCC(=O)Nc1cc(-c2c(-c3ccc(F)cc3F)nn3c2OCCC3)ccn1` [Example 45], for which the efficacy worked out at 94% in series [1]; 90% in series [2] (in vivo); 90% in series [7]; 95% in series [3] (in vivo); 92% in series [5]. Also, the “Growth inhibition … in %” value in series [9] turned out to be 78%. The “Inhibition of DON/AcDON in %” value in [4] is listed as 100%. In series [6] (setting [15]), this compound gave a LogP of 1.75.

`CSCC(=O)Nc1cc(-c2c(-c3ccc(F)cc3)nn3c2OCCC3)ccn1` [Example 30]: the efficacy worked out at 94% in series [1]; 95% in [2] (in vivo); 70% in [8]; 100% in series [7]; 98% in series [3] (in vivo). Besides, the LogP in series [6] (setting [15]) came out at 1.72.

On to `CC(C(=O)Nc1cc(-c2c(-c3ccccc3)nn3c2OCCC3)ccn1)c1ccc(F)cc1` (stereo not shown) [Example 18], for which the efficacy is listed as 94% in series [1]; 95% in series [2] (in vivo); 90% in [8]; 95% in series [7]; 93% in [3] (in vivo); 94% in series [5]. The compound further gave a LogP in series [6] (setting [15]) of 2.27.

As to `O=C(Nc1cc(-c2c(-c3ccccc3)nn3c2OCCC3)ccn1)C1CC1` [Example 7], the efficacy in series [1] was determined as 94%; in series [2] (in vivo), 95%; in series [8], 90%; in series [7] it was 100%; in series [3] (in vivo), 95%; in series [5] it was 94%. In [6] (setting [15]), the LogP worked out at 1.25.

Turning to `CC(=O)Nc1cc(-c2c(-c3ccc(F)cc3)nn3c2OCC3)ccn1` [Example 1], the efficacy in series [1] worked out at 70%; in series [2] (in vivo) it was 95%; in [8], 88%; in series [3] (in vivo), 75%. The “Growth inhibition … in %” value in series [9] is 90%. Besides, the “Inhibition of DON/AcDON in %” value in series [4] was 98%. Besides, the LogP in series [6] (setting [15]) was found to be 1.19.

In the case of `CC(C)C(=O)N(C(=O)C(C)C)c1cc(-c2c(-c3ccccc3)nn3c2NCCC3)ccn1` [Example 92], the efficacy in [7] came to 78%; in series [3] (in vivo), 100%; in [5], 78%. Moreover, the “Inhibition of DON/AcDON in %” value in [4] is 99%. In [6] (setting [12]), the LogP came out at 3.08.

As to `CCC(C)C(=O)Nc1cc(-c2c(-c3ccc(F)cc3F)nn3c2OCCC3)ccn1` (stereo not shown) [Example 39], the efficacy amounted to 94% in series [1]; 95% in series [2] (in vivo); 100% in [7]; 98% in [3] (in vivo); 94% in [5]. For the same compound, the “Growth inhibition … in %” value in [9] is 89%. In series [4], the “Inhibition of DON/AcDON in %” value was found to be 99%. In [6] (setting [15]), the LogP was 1.85.

In the case of `O=C(Nc1cc(-c2c(-c3ccccc3)nn3c2OCCC3)ccn1)C1(Cl)CC1` [Example 21], the efficacy was 89% in series [1]; 100% in series [2] (in vivo); 70% in [8]; 89% in series [7]; 93% in [3] (in vivo). In addition, the LogP in series [6] (setting [15]) is on record as 2.62.

With `C[Si]1(C)COc2c(-c3ccnc(NC(=O)C4CC4)c3)c(-c3ccsc3)nn2C1` [Example 102], the efficacy is 70% in [1], 100% in series [2] (in vivo) and 80% in [8]. The same compound registered a lipophilicity (LogP) in series [6] (setting [12]) of 1.97.

For the compound `O=C(CC(F)(F)F)Nc1cc(-c2c(-c3ccc(F)cc3F)nn3c2OCCC3)ccn1` [Example 46], the efficacy in series [10] came out at 86%; in series [1] it was 94%; in series [2] (in vivo), 90%; in series [11], 88%; in series [7] it was 100%; in series [5], 94%. The compound also registered a log partition coefficient (LogP) in [6] (setting [15]) of 2.13.

Regarding `CSCC(=O)Nc1cc(-c2c(-c3ccccc3)nn3c2OCCC3)ccn1` [Example 16], the efficacy in [1] came out at 94%; in [2] (in vivo) it was 95%; in series [7], 95%; in series [3] (in vivo) it was 93%; in [5], 92%. For the same compound, in series [6] (setting [15]), the LogP turned out to be 1.54.

Take `CC(=O)Nc1cc(-c2c(-c3ccccc3)nn3cccnc23)ccn1` [Example 51, N-[4-(2-phenylpyrazolo[1,5-a]pyrimidin-3-yl)pyridin-2-yl]acetamide]: the inhibition at 50 µM in series [9] (Fusarium graminearum, read-out: Growth inhibition of Fusarium graminearum in %) was 90%; in series [4] (Fusarium graminearum, read-out: Inhibition of DON/AcDON in %), 100%. Further, the chromatographic logP in series [6] (setting [13]) and in series [6] (setting [14]) was 1.41 each time.

`C[C@H](O)C(=O)Nc1cc(-c2c(-c3ccc(F)cc3)nn3c2OCCC3)ccn1` [Example 26]: the efficacy in [1] is listed as 94%; in series [2] (in vivo), 100%; in series [8], 70%; in series [7], 100%; in [5], 72%. In series [6] (setting [15]), this compound returned a lipophilicity (LogP) of 1.31.

For the compound `CC(C)(C)CC(=O)Nc1cc(-c2c(-c3ccccc3)nn3c2OCCC3)ccn1` [Example 20], the efficacy came to 94% in series [1]; 95% in series [2] (in vivo); 95% in series [8]; 100% in [7]; 100% in series [3] (in vivo); 97% in [5]. This compound returned a lipophilicity (LogP) in series [6] (setting [15]) of 1.88.

Consider `CC(C)(C)CC(=O)Nc1cc(-c2c(-c3ccc(F)cc3F)nn3c2OCCC3)ccn1` [Example 49], for which the efficacy stood at 94% in series [1]; 95% in [2] (in vivo); 90% in series [8]; 95% in [7]; 93% in series [3] (in vivo); 94% in series [5]. The compound further yielded a LogP in [6] (setting [15]) of 2.1.

For the compound `O=C(Nc1cc(-c2c(-c3ccc(F)cc3)nn3cccnc23)ccn1)C1CC1` [Example 88], the efficacy in series [1] stood at 90%; in series [2] (in vivo), 95%; in [3] (in vivo), 93%. For the same compound, the “Growth inhibition … in %” value in series [9] turned out to be 55%. In addition, in [4], the “Inhibition of DON/AcDON in %” value came out at 70%. This compound also displayed a LogP in [6] (setting [12]) of 1.75.

On to `O=C(Nc1cc(-c2c(-c3ccc(F)cc3)nn3c2OCCC3)ccn1)C(=O)N1CCCCC1` [Example 70], for which the “Growth inhibition … in %” value in [9] amounted to 76%. Further, the “Inhibition of DON/AcDON in %” value in [4] worked out at 90%. The LogP in series [6] (setting [15]) is recorded as 2.23.

Regarding `CC(C)CC(=O)Nc1cc(-c2c(-c3ccc(F)cc3F)nn3c2OCCC3)ccn1` [Example 40], the efficacy is reported as 94% in [1]; 95% in series [2] (in vivo); 100% in [7]; 98% in series [3] (in vivo); 94% in [5]. The “Growth inhibition … in %” value in series [9] is given as 85%. Further, the “Inhibition of DON/AcDON in %” value in [4] is 99%. The compound further returned a log partition coefficient (LogP) in series [6] (setting [15]) of 1.88.

In the case of `O=C(CC1CC1)Nc1cc(-c2c(-c3ccc(F)cc3F)nn3c2OCCC3)ccn1` [Example 42], the efficacy is listed as 94% in series [1]; 100% in series [2] (in vivo); 70% in series [8]; 95% in series [7]; 94% in series [5]. In addition, in series [6] (setting [15]), the LogP was determined as 1.72.

For the compound `CCC(=O)Nc1cc(-c2c(-c3ccsc3)nn3c2OC[Si](C)(C)C3)ccn1` [Example 100], the efficacy was determined as 70% in series [1], 95% in series [2] (in vivo) and 80% in series [8]. The compound further came in with a LogP in [6] (setting [12]) of 1.88.
